Measurements taken from patent US8785655B2, “Ionic liquid solvents” (Dublin City University, priority 2009, dated 2014).

Legend:
[1] = system: Candida krusei ATCC 6258; test: In vitro antifungal activity, MIC by microdilution (NCCLS M27-A)
[2] = system: Staphylococcus aureus H 5996/08 Methiciline-resistant; test: Screen against bacteria, MIC/IC80; type: cell-based; conditions: MRSA
[3] = system: Staphylococcus aureus CCM 4516/08; test: Screen against bacteria, MIC/IC80; type: cell-based; conditions: SA
[4] = system: Absidia corymbifera 272; test: In vitro antifungal activity, MIC by microdilution (NCCLS M27-A); conditions: AC
[5] = system: Klebsiella pneumoniae D 11750/08; test: Screen against bacteria, MIC/IC80; type: cell-based; conditions: KP
[6] = system: Candida glabrata 20/l; test: In vitro antifungal activity, MIC by microdilution (NCCLS M27-A); conditions: CG
[7] = system: Candida albicans ATCC 44859; test: as above
Experimental: (§1) In vitro antifungal activities of the compounds were evaluated on the collection of fungal strains deposited at the Department of Biological and Medical Sciences, Faculty of Pharmacy, Charles University, Czech Republic. All the isolates were maintained on Sabouraud dextrose agar prior to being tested.
(§2) Minimum inhibitory concentrations (MICs) were determined by the microdilution format of the NCCLS M27-A guidelines. […] RPMI 1640 (Sevapharma, Prague) medium supplemented with L-glutamine and buffered with 0.165 M morpholinepropanesulfonic acid to pH 7.0 was used as the test medium. The wells of the microdilution tray contained 100 μl of the RPMI 1640 medium with 2-fold serial dilutions of the compounds (1000 to 0.24 μmol/l for the new compounds) and 100 μl of inoculum suspension. Fungal inoculum in RPMI 1640 was prepared to give a final concentration of 5×103±0.2 cfu·ml-1. The trays were incubated at 35° C. and MICs were read visually for filamentous fungi and photometrically for yeasts as an optical density (OD) at 540 nm after 24 h and 48 h. The MICs were defined as 80% inhibition of the growth of control. MICs were determined twice and in duplicate. The deviations from the usually obtained were no higher than the nearest concentration value up and down the dilution scale.

[8] = system: Candida lusitaniae 2446/l; test: as above; conditions: CL
Experimental: as §1, §2

[9] = system: Candida tropicalis 156; test: as above; conditions: CT
Experimental: as §1, §2

[10] = system: Staphylococcus epidermidis H 6966/08; test: Screen against bacteria, MIC/IC80; type: cell-based; conditions: SE
[11] = system: Klebsiella pneumoniae J 14368/08 ESBL-positive; test: Screen against bacteria, MIC/IC80; type: cell-based; conditions: KP-E
[12] = system: Candida parapsilosis ATCC 22019; test: In vitro antifungal activity, MIC by microdilution (NCCLS M27-A); conditions: CP
Experimental: as §1, §2

[13] = system: Trichophyton mentagrophytes 445; test: as above; conditions: TM
Experimental: as §1, §2

[14] = system: Candida krusei E28; test: as above
Experimental: All the isolates were maintained on Sabouraud dextrose agar prior to being tested.
as §2

[15] = system: Escherichia coli CCM4517; test: Screen against bacteria, MIC/IC80; type: cell-based; conditions: EC
[16] = system: Pseudomonas aeruginosa CCM 1961; test: Screen against bacteria, MIC/IC80; type: cell-based; conditions: PA
[17] = system: Enterococcus sp. J 14365/08; test: Screen against bacteria, MIC/IC80; type: cell-based; conditions: EF
[18] = system: Candida albicans ATCC 90028; test: In vitro antifungal activity, MIC by microdilution (NCCLS M27-A)
[19] = system: Aspergillus fumigatus 231; test: as above; conditions: AF
Experimental: as §1, §2

With CCCCCCCCOS(=O)(=O)[O-].CCOCCOC(=O)C(C)OC(=O)Cn1cc[n+](C)c1 (centres unmarked) [KG172, RS-3-methyl-1-[1-(ethoxyethoxycarbonyl)-1-methylmethoxycarbonylmethyl]imidazolium octyl sulphate] the MIC/IC80 ([1]; CK1, 24 h) was >1000 µM, the MIC/IC80 ([1]; CK1, 48 h) was >1000 µM and the MIC/IC80 ([2]; 24 h) was >1000 µM. For the same compound, the MIC/IC80 ([2]; 48 h) was >1000 µM, the MIC/IC80 ([3]; 24 h) was >1000 µM and the MIC/IC80 ([3]; 48 h) was >1000 µM. For the same compound, the MIC/IC80 ([4]; 24 h) was >1000 µM, the MIC/IC80 ([4]; 48 h) was >1000 µM and the MIC/IC80 ([5]; 24 h) was >1000 µM. The MIC/IC80 ([5]; 48 h) was >1000 µM, the MIC/IC80 ([6]; 24 h) was >1000 µM and the MIC/IC80 ([6]; 48 h) was >1000 µM. The MIC/IC80 ([7]; CA1, 24 h) was >1000 µM, the MIC/IC80 ([7]; CA1, 48 h) was >1000 µM and the MIC/IC80 ([8]; 24 h) was >1000 µM. For the same compound, the MIC/IC80 ([8]; 48 h) was >1000 µM, the MIC/IC80 ([9]; 24 h) was >1000 µM and the MIC/IC80 ([9]; 48 h) was >1000 µM. For the same compound, the MIC/IC80 ([10]; 24 h) was >1000 µM, the MIC/IC80 ([10]; 48 h) was >1000 µM and the MIC/IC80 ([11]; 24 h) was >1000 µM. For the same compound, the MIC/IC80 ([11]; 48 h) was >1000 µM, the MIC/IC80 ([12]; 24 h) was >1000 µM and the MIC/IC80 ([12]; 48 h) was >1000 µM. For the same compound, the MIC/IC80 ([13]; 72 h) was >1000 µM, the MIC/IC80 ([13]; 120 h) was >1000 µM and the MIC/IC80 ([14]; CK2, 24 h) was >1000 µM. The MIC/IC80 ([14]; CK2, 48 h) was >1000 µM, the MIC/IC80 ([15]; 24 h) was >1000 µM and the MIC/IC80 ([15]; 48 h) was >1000 µM. The MIC/IC80 ([16]; 24 h) was >1000 µM, the MIC/IC80 ([16]; 48 h) was >1000 µM and the MIC/IC80 ([17]; 24 h) was >1000 µM. For the same compound, the MIC/IC80 ([17]; 48 h) was >1000 µM, the MIC/IC80 ([18]; CA2, 24 h) was >1000 µM and the MIC/IC80 ([18]; CA2, 48 h) was >1000 µM. The MIC/IC80 ([19]; 24 h) was >1000 µM and the MIC/IC80 ([19]; 48 h) was >1000 µM.

CCCCCCCCOS(=O)(=O)[O-].CCOCCOC(=O)[C@@H](OC(=O)Cn1cc[n+](C)c1)c1ccccc1 [KG305, S-3-methyl-1-[1-(ethoxyethoxycarbonyl)-1-phenylmethoxycarbonylmethyl]imidazolium octyl sulphate] was tested, and the MIC/IC80 ([1]; CK1, 24 h) was >1000 µM, the MIC/IC80 ([1]; CK1, 48 h) was >1000 µM and the MIC/IC80 ([2]; 24 h) was >1000 µM. For the same compound, the MIC/IC80 ([2]; 48 h) was >1000 µM, the MIC/IC80 ([3]; 24 h) was >1000 µM and the MIC/IC80 ([3]; 48 h) was >1000 µM. For the same compound, the MIC/IC80 ([4]; 24 h) was >1000 µM, the MIC/IC80 ([4]; 48 h) was >1000 µM and the MIC/IC80 ([5]; 24 h) was >1000 µM. For the same compound, the MIC/IC80 ([5]; 48 h) was >1000 µM, the MIC/IC80 ([6]; 24 h) was >1000 µM and the MIC/IC80 ([6]; 48 h) was >1000 µM. The MIC/IC80 ([7]; CA1, 24 h) was >1000 µM, the MIC/IC80 ([7]; CA1, 48 h) was >1000 µM and the MIC/IC80 ([8]; 24 h) was >1000 µM. The MIC/IC80 ([8]; 48 h) was >1000 µM, the MIC/IC80 ([9]; 24 h) was >1000 µM and the MIC/IC80 ([9]; 48 h) was >1000 µM. For the same compound, the MIC/IC80 ([10]; 24 h) was >1000 µM, the MIC/IC80 ([10]; 48 h) was >1000 µM and the MIC/IC80 ([11]; 24 h) was >1000 µM. The MIC/IC80 ([11]; 48 h) was >1000 µM, the MIC/IC80 ([12]; 24 h) was >1000 µM and the MIC/IC80 ([12]; 48 h) was >1000 µM. For the same compound, the MIC/IC80 ([13]; 72 h) was >1000 µM, the MIC/IC80 ([13]; 120 h) was >1000 µM and the MIC/IC80 ([14]; CK2, 24 h) was >1000 µM. The MIC/IC80 ([14]; CK2, 48 h) was >1000 µM, the MIC/IC80 ([15]; 24 h) was >1000 µM and the MIC/IC80 ([15]; 48 h) was >1000 µM. For the same compound, the MIC/IC80 ([16]; 24 h) was >1000 µM, the MIC/IC80 ([16]; 48 h) was >1000 µM and the MIC/IC80 ([17]; 24 h) was >1000 µM. The MIC/IC80 ([17]; 48 h) was >1000 µM, the MIC/IC80 ([18]; CA2, 24 h) was >1000 µM and the MIC/IC80 ([18]; CA2, 48 h) was >1000 µM. The MIC/IC80 ([19]; 24 h) was >1000 µM and the MIC/IC80 ([19]; 48 h) was >1000 µM.

With CCCCCCCCOS(=O)(=O)[O-].CCOCCOC(=O)C(OC(=O)Cn1cc[n+](C)c1)c1ccccc1 (centres unmarked) [KG400, RS-3-methyl-1-[1-(ethoxyethoxycarbonyl)-1-phenylmethoxycarbonylmethyl]imidazolium octyl sulphate] the MIC/IC80 ([1]; CK1, 24 h) was >1000 µM, the MIC/IC80 ([1]; CK1, 48 h) was >1000 µM and the MIC/IC80 ([2]; 24 h) was >1000 µM. The MIC/IC80 ([2]; 48 h) was >1000 µM, the MIC/IC80 ([3]; 24 h) was >1000 µM and the MIC/IC80 ([3]; 48 h) was >1000 µM. The MIC/IC80 ([4]; 24 h) was >1000 µM, the MIC/IC80 ([4]; 48 h) was >1000 µM and the MIC/IC80 ([5]; 24 h) was >1000 µM. The MIC/IC80 ([5]; 48 h) was >1000 µM, the MIC/IC80 ([6]; 24 h) was >1000 µM and the MIC/IC80 ([6]; 48 h) was >1000 µM. The MIC/IC80 ([7]; CA1, 24 h) was >1000 µM, the MIC/IC80 ([7]; CA1, 48 h) was >1000 µM and the MIC/IC80 ([8]; 24 h) was >1000 µM. For the same compound, the MIC/IC80 ([8]; 48 h) was >1000 µM, the MIC/IC80 ([9]; 24 h) was >1000 µM and the MIC/IC80 ([9]; 48 h) was >1000 µM. The MIC/IC80 ([10]; 24 h) was >1000 µM, the MIC/IC80 ([10]; 48 h) was >1000 µM and the MIC/IC80 ([11]; 24 h) was >1000 µM. For the same compound, the MIC/IC80 ([11]; 48 h) was >1000 µM, the MIC/IC80 ([12]; 24 h) was >1000 µM and the MIC/IC80 ([12]; 48 h) was >1000 µM. The MIC/IC80 ([13]; 72 h) was >1000 µM, the MIC/IC80 ([13]; 120 h) was >1000 µM and the MIC/IC80 ([14]; CK2, 24 h) was >1000 µM. For the same compound, the MIC/IC80 ([14]; CK2, 48 h) was >1000 µM, the MIC/IC80 ([15]; 24 h) was >1000 µM and the MIC/IC80 ([15]; 48 h) was >1000 µM. For the same compound, the MIC/IC80 ([16]; 24 h) was >1000 µM, the MIC/IC80 ([16]; 48 h) was >1000 µM and the MIC/IC80 ([17]; 24 h) was >1000 µM. The MIC/IC80 ([17]; 48 h) was >1000 µM, the MIC/IC80 ([18]; CA2, 24 h) was >1000 µM and the MIC/IC80 ([18]; CA2, 48 h) was >1000 µM. For the same compound, the MIC/IC80 ([19]; 24 h) was >1000 µM and the MIC/IC80 ([19]; 48 h) was >1000 µM.

In the case of CCCCCOC(=O)C(OC(=O)Cn1cc[n+](C)c1)c1ccccc1.[Br-] (centres unmarked) [KG816, RS-3-methyl-1-[1-(pentoxycarbonyl)-1-phenylmethoxycarbonylmethyl]imidazolium bromide], the MIC/IC80 ([1]; CK1, 24 h) is reported as 1000 µM, the MIC/IC80 ([1]; CK1, 48 h) is reported as 1000 µM and the MIC/IC80 ([2]; 24 h) is reported as >1000 µM. The MIC/IC80 ([2]; 48 h) was >1000 µM, the MIC/IC80 ([3]; 24 h) was 1000 µM and the MIC/IC80 ([3]; 48 h) was 1000 µM. The MIC/IC80 ([4]; 24 h) was 1000 µM, the MIC/IC80 ([4]; 48 h) was 1000 µM and the MIC/IC80 ([5]; 24 h) was >1000 µM. The MIC/IC80 ([5]; 48 h) was >1000 µM, the MIC/IC80 ([6]; 24 h) was 1000 µM and the MIC/IC80 ([6]; 48 h) was 1000 µM. For the same compound, the MIC/IC80 ([7]; CA1, 24 h) was 500 µM, the MIC/IC80 ([7]; CA1, 48 h) was 1000 µM and the MIC/IC80 ([8]; 24 h) was >1000 µM. For the same compound, the MIC/IC80 ([8]; 48 h) was >1000 µM, the MIC/IC80 ([9]; 24 h) was 1000 µM and the MIC/IC80 ([9]; 48 h) was >1000 µM. The MIC/IC80 ([10]; 24 h) was >1000 µM, the MIC/IC80 ([10]; 48 h) was >1000 µM and the MIC/IC80 ([11]; 24 h) was >1000 µM. The MIC/IC80 ([11]; 48 h) was >1000 µM, the MIC/IC80 ([12]; 24 h) was >1000 µM and the MIC/IC80 ([12]; 48 h) was >1000 µM. The MIC/IC80 ([13]; 72 h) was 500 µM, the MIC/IC80 ([13]; 120 h) was 500 µM and the MIC/IC80 ([14]; CK2, 24 h) was 1000 µM. The MIC/IC80 ([14]; CK2, 48 h) was >1000 µM, the MIC/IC80 ([15]; 24 h) was >1000 µM and the MIC/IC80 ([15]; 48 h) was >1000 µM. The MIC/IC80 ([16]; 24 h) was >1000 µM, the MIC/IC80 ([16]; 48 h) was >1000 µM and the MIC/IC80 ([17]; 24 h) was >1000 µM. The MIC/IC80 ([17]; 48 h) was >1000 µM, the MIC/IC80 ([18]; CA2, 24 h) was 1000 µM and the MIC/IC80 ([18]; CA2, 48 h) was >1000 µM. For the same compound, the MIC/IC80 ([19]; 24 h) was 1000 µM and the MIC/IC80 ([19]; 48 h) was 1000 µM.
